Reference: US8329704B2, “Substituted pyrazinone derivatives for use in MCH-1 mediated diseases” (Janssen Pharmaceutica, N.V., priority 2005, dated 2012)

Target: T1, human MCH-1 receptor (Homo sapiens, UniProt Q99705)
T1 construct: expressed in transfected cells
Assay: Ca2+ mobilization experiment for the MCH-1 receptor (FLIPR), inhibition of MCH-induced Ca2+ mobilization
Format: cell-based
Conditions: CHO cells stably expressing human MCH-1 receptor, inhibition of MCH-induced Ca2+ response, read-out: MCH-1 pIC50 (converted)
Description: The interaction of the compounds of Formula (I) with MCH-1 receptors was assessed in in vitro transient calcium (Ca^2+) mobilization assays in the fluorimetric imaging plate reader (FLIPR) format (Sullivan et al. 1999, Methods Mol Biol 114:125-133). In general, the natural agonist (MCH) is incubated with cells expressing the MCH-1 receptor, which elicits a concentration-dependent transient mobilization of Ca^2+ from internal stores. The interaction of the test compounds with the receptor is assessed in competition experiments. Various concentrations of the test compound are added to the incubation mixture containing the receptor-expressing cells and a submaximal concentration of MCH. The test compound in proportion to its antagonist potency and its concentration inhibits MCH-induced Ca^2+ mobilization.
Chinese Hamster ovary cells (CHO) stably expressing the human MCH-1 receptor are grown in a 1:1 mixture of Dulbecco's Modified Eagles Medium (DMEM) and HAM's F12 medium including Glutamax™ (Invitrogen), supplemented with 10% heat-inactivated fetal bovine serum and 400 μg/ml geneticin.
Twenty-four hours before the experiment, MCH-1 receptor-expressing CHO cells are seeded in 20 μl (5,000 cells per well) into 384-well black wall, clear bottom microtiter plates (Costar). On the day of the experiment, 20 μl per well calcium assay kit containing 10 mM probenicide (Molecular Devices) is added. Cells are loaded for 90 min at 37° C. and 5% CO2 in a cell culture incubator. After loading, 20 μl of serial dilutions of the test compound are added and cells are further incubated for 20 min at room temperature in the dark. After 20 min, 20 μl of a submaximal MCH concentration is added and changes in intracellular calcium are recorded directly in a FLIPR III apparatus (Molecular devices).
Data from assays in the presence of compound were calculated as a percentage of total Ca^2+-responses measured in the absence of test compound. Inhibition curves, plotting percent of total Ca^2+-responses versus the log value of the concentration of the test compound, were automatically generated, and sigmoidal inhibition curves were fitted using non-linear regression. The pIC50 values of test compounds were derived from individual curves.

T1 sequence (Q99705 whole entry): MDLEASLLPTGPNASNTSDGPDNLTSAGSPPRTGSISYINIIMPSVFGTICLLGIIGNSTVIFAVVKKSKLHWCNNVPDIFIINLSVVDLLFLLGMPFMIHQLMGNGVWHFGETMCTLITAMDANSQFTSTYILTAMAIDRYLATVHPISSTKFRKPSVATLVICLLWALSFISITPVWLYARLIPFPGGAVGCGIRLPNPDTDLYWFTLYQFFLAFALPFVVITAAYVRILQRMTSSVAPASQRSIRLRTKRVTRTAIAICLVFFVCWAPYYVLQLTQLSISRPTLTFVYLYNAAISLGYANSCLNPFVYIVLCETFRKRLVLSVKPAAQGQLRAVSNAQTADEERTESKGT

Row | Compound | IC50 [nM]
1 | CNC1CCN(c2ccc(-n3ccnc(NCCOc4ccccc4)c3=O)cc2)C1 (centres unmarked) [1-01] | 501
2 | CC(=O)N(C)C1CCN(c2ccc(-n3ccnc(NCCOc4ccccc4)c3=O)cc2)C1 (centres unmarked) [1-02] | 251
3 | CC(C)C(=O)N(C)C1CCN(c2ccc(-n3ccnc(NCCOc4ccccc4)c3=O)cc2)C1 (centres unmarked) [1-03] | 39.8
4 | CN(C(=O)OC(C)(C)C)C1CCN(c2ccc(-n3ccnc(NCCOc4ccccc4)c3=O)cc2)C1 (centres unmarked) [1-04] | 1580
5 | CN(C1CCN(c2ccc(-n3ccnc(NCCOc4ccccc4)c3=O)cc2)C1)S(C)(=O)=O (centres unmarked) [1-05] | > 10000
6 | O=c1c(NCCOc2ccccc2)nccn1-c1ccc(N2CCNCC2)cc1 [1-06] | 2000
7 | CC(C)N1CCN(c2ccc(-n3ccnc(NCCOc4ccccc4)c3=O)cc2)CC1 [1-07] | 1580
8 | COc1cc(-n2ccnc(NCCOc3ccccc3)c2=O)ccc1N1CCC(O)C1 (centres unmarked) [1-08] | 398
9 | CNC1CCN(c2ccc(-n3ccnc(NCCOc4ccccc4)c3=O)cc2OC)C1 (centres unmarked) [1-09] | 20
10 | COc1cc(-n2ccnc(NCCOc3ccccc3)c2=O)ccc1N1CCC(N(C)C)C1 (centres unmarked) [1-10] | 100
11 | COc1cc(-n2ccnc(NCCOc3ccccc3)c2=O)ccc1N1CCC(N(C)C(=O)C(C)C)C1 (centres unmarked) [1-11] | 100
12 | COc1cc(-n2ccnc(NCCOc3ccccc3)c2=O)ccc1N1CCC(N(C)C(=O)C2CC2)C1 (centres unmarked) [1-12] | 79.4
13 | COc1cc(-n2ccnc(NCCOc3ccccc3)c2=O)ccc1N1CCC(N)CC1 [1-13] | 79.4
14 | COc1cc(-n2ccnc(NCCOc3ccccc3)c2=O)ccc1N1CCC(NC(C)=O)CC1 [1-14] | 316
15 | COc1cc(-n2ccnc(NCCOc3ccccc3)c2=O)ccc1N1CCC(NC(=O)C(C)C)CC1 [1-15] | 100
16 | O=c1c(NCCOc2ccccc2)nccn1-c1ccc(C=CCN2CCCC2)cc1 [1-16] | 100
17 | COc1cc(-n2ccnc(NCCOc3ccccc3)c2=O)ccc1/C=C/CN1CCCC1 [1-17] | 31.6
18 | COc1cc(-n2ccnc(NCCOc3ccccc3)c2=O)ccc1/C=C/CN1CCOCC1 [1-18] | 39.8
19 | CN(C)CCNc1ccc(-n2ccnc(NCCOc3ccccc3)c2=O)cc1 [1-19] | 100
20 | O=c1c(NCCOc2ccccc2)nccn1-c1ccc(NCCN2CCCC2)cc1 [1-20] | 200
21 | CN(C)CCCNc1ccc(-n2ccnc(NCCOc3ccccc3)c2=O)cc1 [1-21] | 501
22 | CN(C)CC(=O)Nc1ccc(-n2ccnc(NCCOc3ccccc3)c2=O)cc1 [1-22] | 2000
23 | CNCCOc1ccc(-n2ccnc(NCCOc3ccccc3)c2=O)cc1 [1-23] | 1260
24 | CCCN(C)CCOc1ccc(-n2ccnc(NCCOc3ccccc3)c2=O)cc1 [1-24] | 158
25 | CN(CCOc1ccc(-n2ccnc(NCCOc3ccccc3)c2=O)cc1)C1CCCCC1 [1-25] | 631
26 | CN(C)CCN(C)CCOc1ccc(-n2ccnc(NCCOc3ccccc3)c2=O)cc1 [1-27] | > 10000
27 | CC(C)N(CCOc1ccc(-n2ccnc(NCCOc3ccccc3)c2=O)cc1)C(C)C [1-28] | 501

Row | Compound | IC50 [nM]
28 | COCCN(C)CCOc1ccc(-n2ccnc(NCCOc3ccccc3)c2=O)cc1 [1-29] | 1580
29 | CCCC(=O)N(C)CCOc1ccc(-n2ccnc(NCCOc3ccccc3)c2=O)cc1 [1-31] | 316
30 | CN(CCOc1ccc(-n2ccnc(NCCOc3ccccc3)c2=O)cc1)CCc1ccccc1 [1-32] | 794
31 | O=c1c(NCCOc2ccccc2)nccn1-c1ccc(OCCN(CCO)Cc2ccccc2)cc1 [1-33] | 794
32 | CCN(CCOc1ccc(-n2ccnc(NCCOc3ccccc3)c2=O)cc1)Cc1ccncc1 [1-34] | 1000
33 | O=c1c(NCCOc2ccccc2)nccn1-c1ccc(OCCN2CCCC2)cc1 [1-35] | 501
34 | O=c1c(NCCOc2ccccc2)nccn1-c1ccc(OCCN2CCC(O)C2)cc1 (centres unmarked) [1-36] | 316
35 | O=C1CCC(=O)N1CCOc1ccc(-n2ccnc(NCCOc3ccccc3)c2=O)cc1 [1-37] | 100
36 | O=c1c(NCCOc2ccccc2)nccn1-c1ccc(OCCN2CCCCC2)cc1 [1-38] | 1580
37 | O=c1c(NCCOc2ccccc2)nccn1-c1ccc(OCCN2CCC(F)CC2)cc1 [1-39] | 200
38 | O=C1CCN(CCOc2ccc(-n3ccnc(NCCOc4ccccc4)c3=O)cc2)CC1 [1-40] | 251
39 | NC(=O)C1CCN(CCOc2ccc(-n3ccnc(NCCOc4ccccc4)c3=O)cc2)CC1 [1-41] | 631
40 | COC(=O)C1CCN(CCOc2ccc(-n3ccnc(NCCOc4ccccc4)c3=O)cc2)CC1 [1-42] | 158
41 | O=c1c(NCCOc2ccccc2)nccn1-c1ccc(OCCN2CCC3(CC2)OCCO3)cc1 [1-43] | 200
42 | O=c1c(NCCOc2ccccc2)nccn1-c1ccc(OCCN2CCN(c3ccccc3)CC2)cc1 [1-45] | 794
43 | O=c1c(NCCOc2ccccc2)nccn1-c1ccc(OCCCN2CCCC2)cc1 [1-46] | 3160
44 | O=c1c(NCCOc2ccccc2)nccn1-c1ccc(OCCCCN2CCCC2)cc1 [1-47] | 1000
45 | Cc1cc(-n2ccnc(NCCOc3ccccc3)c2=O)ccc1OCCN1CCCC1 [1-48] | 50.1
46 | C=CCc1cc(-n2ccnc(NCCOc3ccccc3)c2=O)ccc1OCCN1CCCC1 [1-49] | 31.6
47 | O=c1c(NCCOc2ccccc2)nccn1-c1ccc(OCCN2CCCC2)c(CO)c1 [1-51] | 126
48 | COCc1cc(-n2ccnc(NCCOc3ccccc3)c2=O)ccc1OCCN1CCCC1 [1-52] | 158
49 | CC(=O)c1cc(-n2ccnc(NCCOc3ccccc3)c2=O)ccc1OCCN1CCCC1 [1-53] | 100
50 | COC(=O)c1cc(-n2ccnc(NCCOc3ccccc3)c2=O)ccc1OCCN1CCCC1 [1-54] | 200
51 | NC(=O)c1cc(-n2ccnc(NCCOc3ccccc3)c2=O)ccc1OCCN1CCCC1 [1-55] | 1000
52 | O=c1c(NCCOc2ccccc2)nccn1-c1ccc(OCCN2CCCC2)c(Cl)c1 [1-56] | 7940
53 | COc1cc(-n2ccnc(NCCOc3ccccc3)c2=O)ccc1OC1CNC1 [1-57] | 63.1
54 | COc1cc(-n2ccnc(NCCOc3ccccc3)c2=O)ccc1OC1CCNCC1 [1-58] | 63.1

Row | Compound | IC50 [nM]
55 | COc1cc(-n2ccnc(NCCOc3ccccc3)c2=O)ccc1OCCNC1CC1 [1-59] | 63.1
56 | COc1cc(-n2ccnc(NCCOc3ccccc3)c2=O)ccc1OCCNCCO [1-60] | 200
57 | COc1cc(-n2ccnc(NCCOc3ccccc3)c2=O)ccc1OCCN(C)C(C)=O [1-61] | 100
58 | CCCC(=O)N(C)CCOc1ccc(-n2ccnc(NCCOc3ccccc3)c2=O)cc1OC [1-62] | 50.1
59 | COc1cc(-n2ccnc(NCCOc3ccccc3)c2=O)ccc1OCCN(C)C(=O)CN(C)C [1-63] | 200
60 | COCC(=O)N(C)CCOc1ccc(-n2ccnc(NCCOc3ccccc3)c2=O)cc1OC [1-64] | 100
61 | COc1cc(-n2ccnc(NCCOc3ccccc3)c2=O)ccc1OCCN(C)C(=O)C1CCCC1 [1-65] | 100
62 | COc1cc(-n2ccnc(NCCOc3ccccc3)c2=O)ccc1OCCN(C)C(=O)c1ccccc1 [1-66] | 251
63 | COc1cc(-n2ccnc(NCCOc3ccccc3)c2=O)ccc1OCCN1CCCC1 [1-67] | 63.1
64 | COc1cc(-n2ccnc(NCCOc3ccccc3)c2=O)ccc1OCCN1CCC(O)C1 (centres unmarked) [1-68] | 126
65 | COc1cc(-n2ccnc(NCCOc3ccccc3)c2=O)ccc1OCCN1CCC(F)CC1 [1-69] | 5.01
66 | COc1cc(-n2ccnc(NCCOc3ccccc3)c2=O)ccc1OCCN1CCC(F)CC1 [1-70] | 12.6
67 | COc1cc(-n2ccnc(NCCOc3ccccc3)c2=O)ccc1OCCN1CCC(C#N)CC1 [1-71] | 100
68 | COc1cc(-n2ccnc(NCCOc3ccccc3)c2=O)ccc1OCCN1CCCC(CO)C1 (centres unmarked) [1-72] | 50.1
69 | COc1cc(-n2ccnc(NCCOc3ccccc3)c2=O)ccc1OCCN1CCC(F)(F)CC1 [1-73] | 50.1
70 | COc1cc(-n2ccnc(NCCOc3ccccc3)c2=O)ccc1OCCN1CCOCC1 [1-74] | 79.4
71 | COc1cc(-n2ccnc(NCCOc3ccccc3)c2=O)ccc1OCCCN1CCCC1 [1-75] | 100
72 | COc1cc(-n2ccnc(NCCOc3ccccc3)c2=O)ccc1OCCCN1CCC(O)C1 (centres unmarked) [1-76] | 126
73 | COc1cc(-n2ccnc(NCCOc3ccccc3)c2=O)ccc1OCCCN1CCCCC1 [1-77] | 50.1
74 | COc1cc(-n2ccnc(NCCOc3ccccc3)c2=O)ccc1OCCCN1CCCC(CO)C1 (centres unmarked) [1-78] | 79.4
75 | COc1cc(-n2ccnc(NCCOc3ccccc3)c2=O)ccc1OCCCN1CCC(F)(F)CC1 [1-79] | 39.8
76 | COc1cc(-n2ccnc(NCCOc3ccccc3)c2=O)ccc1OCCCN1CCOCC1 [1-80] | 63.1
77 | COc1cc(-n2ccnc(NCCOc3ccccc3)c2=O)ccc1OCC(C)N1CCCC1 (centres unmarked) [1-82] | 63.1
78 | COc1cc(-n2ccnc(CCCc3ccccc3)c2=O)ccc1OCCN1CCCC1 [2-01] | 126
79 | O=c1c(NCCc2ccccc2)nccn1-c1ccc(OCCN2CCCC2)cc1 [2-02] | 126
80 | COc1cc(-n2ccnc(N(C)CCc3ccccc3)c2=O)ccc1OCCN1CCCC1 [2-05] | 501
